# US20190307690A1 (THE AMERICAN UNIVERSITY IN CAIRO, priority 2016, published 2019)
# Assays:
# [1] = In-vitro drug release analysis (dialysis, PBS pH 7.4) with release kinetics and f1/f2 comparison; type: physicochemical; conditions: oxaliplatin release
# Description: The drug release testing was conducted according to a described method (Shazly et al., Comparison of dialysis and dispersion methods for in vitro release determination of drugs from multilamellar liposomes, Dissolution Technol., vol. 15, no. 2, pp. 7-10, 2008). […] A volume of 0.5 ml of liposomal preparation was placed in a dialysis tubing (3.8 cm in length). Both ends were tied. The dialysis bag was suspended in 25 ml PBS at pH 7.4 and maintained at 37±0.5° C. (Shazly et al., 2008). The dispersion was rotated at 200 strokes/minute in a water bath shaker (Shazly et al., 2008). At predetermined time intervals of 0.25, 0.5, 1, 1.5, 2, 4, 6, 8, 12, 24, 48, and 72 h; 1 ml aliquots were sampled and replaced with 1 ml fresh pH 7.4 PBS, which was maintained at the same temperature as the samples being 37±0.5° C. Drug concentrations were determined using HPLC.
# Two methods were used to investigate the kinetics of drug release profile from the prepared liposomal formulations.
# This method involved the fitting of the release data to one of the following seven release kinetic models.
# Where, Qt is the amount of drug released in time t, Q0 is the initial amount of drug in the solution and K0 is the zero order release constant expressed in units of concentration/time. To study the release kinetics, data obtained from in-vitro drug release studies were plotted as cumulative amount of drug released versus time.
# Where, Ct is the concentration of drug released in time t, C0 is the initial concentration of drug, K1 is the first order rate constant. The data obtained were plotted as log cumulative percentage of drug remaining versus time which would yield a straight line with a slope of −K/2.303.
# Where, Q is the amount of drug released in time t, KH is the Higuchi dissolution constant. The data obtained were plotted as cumulative percentage of drug released versus square root of time.
# Where, Qt is the amount of drug remaining in time t, Q0 is the initial amount of the drug in liposome and KC is the rate constant for Hixson-Crowell rate equation. The data obtained were plotted as Cube root of cumulative percentage of drug remaining versus time.
# Where Mt/M∞ is a fraction of drug released at time t, KP is the release rate constant and n is the release exponent. The data obtained were plotted as log (cumulative percentage of drug released) versus log (time).
# Where [Mt/M∞] is a fraction of drug released at time t, KB is the release rate constant. To study the release kinetics, data obtained from in-vitro drug release were plotted as [d(Mt/M∞)/dt] against the root of time inverse on x-axis.
# Where Vm is the maximum release rate, Km is the Michaelis-Menten constant, C is the amount of drug released, and t is time. The data obtained were plotted as drug release % versus time. Michaelis-menten was previously reported in describing the release kinetics of Ketorolac from silica nanoparticles (Lopez Goerneet al., Obtaining of sol-gel ketorolac-silica nanoparticles: Characterization and drug release kinetics, J. Nanomater., vol. 2013, 2013).
# This method utilizes the difference factor (f1), similarity factor (f2) to compare the release profiles of different formulations by measuring the percent difference and the percent similarity respectively.
# Where, n is the number of release sample time intervals, Rt, and Tt are the percent released at each time point, t, for the reference and test drug release profiles, respectively.
# [2] = reference [91]; cited from earlier work
# MCF-7 cell line = assay: γ-H2AX assay (DNA damage); type: cell-based, human; conditions: 2 μM, 1 hr exposure, 24 hours in fresh media; preliminary data
# Description: After incubation, the media was discarded and the cells were further incubated in fresh media for 24 hours. Cells were then fixed using formaldehyde and permeabilized with Triton X-100, and subsequently incubated with H2AX primary antibody for 1 hr. Then, cells were washed using PBS and were further incubated for 30 min. in FITC mouse secondary antibody and washed using PBS. Finally cells were stained using DAPI and observed under a fluorescence microscope.
smiles,measurement,setting,value
"N[C@@H]1CCCC[C@H]1N.O=C([O-])C(=O)[O-].[Pt+2] [Oxaliplatin, Platinum(2+) ethanedioate (1R,2R)-1,2-cyclohexanediamine (1:1:1)]",Baker-Lonsdale K (release rate constant),[1],0.1963
same,First-order K1 (release rate constant),[1],−0.0172
same,Higuchi KH (rate constant),[1],4.5644
same,Hixson-Crowell KC (cube root law release constant),[1],−0.0127
same,Korsmeyer-peppas n (slope exponent),[1],0.0257
same,Michaelis-Menten K (release rate constant),[1],0.0422
same,Zero-order K0 (release rate constant),[1],0.3444
same,F1 (difference factor),[1]; Reference LP-Ox,11.37
same,F2 (similarity factor),[1]; Reference LP-Ox,50.60
same,F1 (difference factor),[1]; Reference LP-void-Oxpt,22.47
same,F2 (similarity factor),[1]; Reference LP-void-Oxpt,38.25
same,F1 (difference factor),[1]; Reference Lipoxal,252.7
same,F2 (similarity factor),[1]; Reference Lipoxal,8.940
same,Cell membrane permeability,[2],<1 × 10^−6 [91] cm/s
same,"DNA damage magnitude (γ-H2AX immunofluorescence), in words",MCF-7 cell line,relatively lower DNA damage
